Assay results as given in PubChem BioAssay AID248 (DTP/NCI, 2004).
Several values for one entry are separate records, joined by “and”; a condition that tells them apart may be missing. Equal values may be shown once. Toxic doses and inconclusive results are not listed. Rule as the data show it: active = T/C of 150% or more; inactive = T/C below 125%.

Tested on: L1210 leukemia ip in BDF1 mice, survival T/C
Test: NCI In Vivo Anticancer Drug Screen. Data for tumor model L1210 Leukemia (intraperitoneal) in B6D2F1 (BDF1) mice
Conditions: endpoint: mean survival time, higher = longer survival
Summary of the method: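 In this screen, tumor-bearing mice given compound are compared to those given vehicle, and their survival values are reported as a treated-to-control quotient.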

[1] = dose: 100.0 mg/kg/injection, schedule: Q01DX009 (ip), vehicle: saline
[2] = dose: 100.0 mg/kg/injection, schedule: Q04DX003 (ip), vehicle: saline
[3] = dose: 200.0 mg/kg/injection, schedule: Q01DX009 (ip), vehicle: saline
[4] = dose: 200.0 mg/kg/injection, schedule: Q04DX003 (ip), vehicle: saline
[5] = dose: 400.0 mg/kg/injection, schedule: Q01DX009 (ip), vehicle: saline
[6] = dose: 400.0 mg/kg/injection, schedule: Q04DX003 (ip), vehicle: saline
[7] = dose: 100.0 mg/kg/injection, schedule: Q01DX001 (ip), vehicle: saline
[8] = dose: 200.0 mg/kg/injection, schedule: Q01DX001 (ip), vehicle: saline
[9] = dose: 100.0 mg/kg/injection, schedule: Q04DX002 (ip), vehicle: saline with Tween-80
[10] = dose: 200.0 mg/kg/injection, schedule: Q04DX002 (ip), vehicle: saline with Tween-80
[11] = dose: 400.0 mg/kg/injection, schedule: Q04DX002 (ip), vehicle: saline with Tween-80
[12] = dose: 100.0 mg/kg/injection, schedule: Q01DX009 (ip), vehicle: saline with Tween-80
[13] = dose: 200.0 mg/kg/injection, schedule: Q01DX009 (ip), vehicle: saline with Tween-80
[14] = dose: 400.0 mg/kg/injection, schedule: Q01DX009 (ip), vehicle: saline with Tween-80
[15] = dose: 100.0 mg/kg/injection, schedule: Q04DX003 (ip), vehicle: saline with Tween-80
[16] = dose: 200.0 mg/kg/injection, schedule: Q04DX003 (ip), vehicle: saline with Tween-80
[17] = dose: 400.0 mg/kg/injection, schedule: Q04DX003 (ip), vehicle: saline with Tween-80
[18] = dose: 100.0 mg/kg/injection, schedule: Q01DX009 (ip), vehicle: Klucel (hydroxypropylcellulose) (HPC)
[19] = dose: 100.0 mg/kg/injection, schedule: Q04DX003 (ip), vehicle: Klucel (hydroxypropylcellulose) (HPC)
[20] = dose: 200.0 mg/kg/injection, schedule: Q01DX009 (ip), vehicle: Klucel (hydroxypropylcellulose) (HPC)
[21] = dose: 200.0 mg/kg/injection, schedule: Q04DX003 (ip), vehicle: Klucel (hydroxypropylcellulose) (HPC)
[22] = dose: 400.0 mg/kg/injection, schedule: Q01DX009 (ip), vehicle: Klucel (hydroxypropylcellulose) (HPC)
[23] = dose: 400.0 mg/kg/injection, schedule: Q04DX003 (ip), vehicle: Klucel (hydroxypropylcellulose) (HPC)

Measured: T/C

COC(=O)C1(C)CCC(c2ccc(C)cc2)=C(CC(=O)O)C1 (stereo not given)
inactive: [1] 115 % of control | [2] 100 % of control | [3] 97 % of control | [4] 96 % of control | [5] 95 % of control | [6] 115 % of control

CC(=O)CC(=O)NCCNCCNC(=O)CC(C)=O
inactive: [1] 88 % of control | [2] 91 % of control | [3] 95 % of control | [4] 98 % of control | [5] 97 % of control | [6] 100 % of control

Cc1coc(NS(=O)(=O)c2ccc(N=Nc3ccc(O)c4ncccc34)cc2)c1C
inactive: [7] 102 % of control | [8] 108 % of control

O=C1C2C3CCC(O3)C2C(=O)N1CSc1nc2ccccc2s1 (stereo not given)
inactive: dose: 100.0 mg/kg/injection, schedule: Q01DX001 (ip), vehicle: saline with Tween-80 96 % of control | dose: 200.0 mg/kg/injection, schedule: Q01DX001 (ip), vehicle: saline with Tween-80 90 % of control | dose: 400.0 mg/kg/injection, schedule: Q01DX001 (ip), vehicle: saline with Tween-80 95 % of control

CCNP(=S)(SCC)SCC
inactive: [9] 96 % of control | [10] 89 % of control | [11] 101 % of control

Brc1ccc(C[N+]23CN4CN(CN(C4)C2)C3)cc1
inactive: dose: 15.0 mg/kg/injection, schedule: Q01DX015 (ip), vehicle: saline 103 % of control | dose: 30.0 mg/kg/injection, schedule: Q01DX015 (ip), vehicle: saline 102 % of control | dose: 60.0 mg/kg/injection, schedule: Q01DX015 (ip), vehicle: saline 102 % of control | [12] 101 % of control | [2] 105 % of control | dose: 120.0 mg/kg/injection, schedule: Q01DX015 (ip), vehicle: saline 105 % of control | [13] 102 % of control | [4] 103 % of control | dose: 240.0 mg/kg/injection, schedule: Q01DX015 (ip), vehicle: saline 98 % of control | [6] 92 % of control

[N-]=[N+]=c1c(=O)c2ccccc2c1=O
inactive: [12] 103 % of control | [13] 97 % of control | [14] 96 % of control

O=C(Nc1cc([N+](=O)[O-])ccc1Cl)SCc1ccccc1
inactive: [12] 102 % of control | [13] 98 % of control | [14] 102 % of control

CC1(C)CC(NC(=O)NCCCl)CC(C)(C)N1
inactive: dose: 12.5 mg/kg/injection, schedule: Q01DX009 (ip), vehicle: saline 98 % of control | dose: 12.5 mg/kg/injection, schedule: Q04DX003 (ip), vehicle: saline 101 % of control | dose: 25.0 mg/kg/injection, schedule: Q01DX009 (ip), vehicle: saline 95 % of control | dose: 25.0 mg/kg/injection, schedule: Q04DX003 (ip), vehicle: saline 114 % of control | dose: 50.0 mg/kg/injection, schedule: Q04DX003 (ip), vehicle: saline 104 % of control

C[n+]1ccc(Cl)c2ccc(Cl)cc21
inactive: dose: 10.0 mg/kg/injection, schedule: Q01DX001 (ip), vehicle: saline 100 % of control | dose: 20.0 mg/kg/injection, schedule: Q01DX001 (ip), vehicle: saline 102 % of control | dose: 40.0 mg/kg/injection, schedule: Q01DX001 (ip), vehicle: saline 102 % of control

CCNC(=O)C1C2C=CC(CC2)C1C(=O)NCC (stereo not given)
inactive: [15] 87 % of control | [16] 96 % of control | [17] 96 % of control

Cc1ccc(C)c(NC(=O)Nc2cccc(Cl)c2)c1
inactive: [18] 93 % of control | [19] 92 % of control | [20] 96 % of control | [21] 89 % of control | [22] 91 % of control | [23] 87 % of control

Cc1cc(OC(=O)Nc2ccccc2)ccc1Cl
inactive: dose: 100.0 mg/kg/injection, schedule: Q04DX002 (ip), vehicle: saline + alcohol 100 % of control | dose: 200.0 mg/kg/injection, schedule: Q04DX002 (ip), vehicle: saline + alcohol 100 % of control | dose: 400.0 mg/kg/injection, schedule: Q04DX002 (ip), vehicle: saline + alcohol 96 % of control

CC1(C)OCC(C(OC(=O)c2ccccc2)C(OC2CCCCO2)C2COC(C)(C)O2)O1 (stereo not given)
inactive: [19] 94 % of control | [21] 96 % of control | [23] 94 % of control

Cc1ccc(C)c(NC(=O)N(CC(O)c2ccccc2)C2CCCCC2)c1 (stereo not given)
inactive: [18] 103 % of control | [19] 96 % of control | [20] 97 % of control | [21] 100 % of control | [22] 95 % of control | [23] 104 % of control

OCCCCCCCCCCCCO
inactive: [15] 105 % of control | [16] 94 % of control | [17] 103 % of control

O=[N+]([O-])c1ccc(NN=C2c3ccccc3Cc3ccccc32)c([N+](=O)[O-])c1
inactive: [9] 87 % of control | [11] 94 % of control

CCOC(=O)Nc1cccc(OC(=O)NC)c1
inactive: [15] 100 % of control | [16] 107 % of control | [17] 89 % of control

CCO/C=C1\SC(=S)N(c2ccccc2OC)C1=O
inactive: [12] 102 % of control | [13] 104 % of control | [14] 106 % of control

CCC[CH2][Ge]([CH2]CCC)[CH2]CCC.CCC[CH2][Ge]([CH3])[CH2]CCC
inactive: [9] 93 % of control | [10] 89 % of control | [11] 93 % of control

CCC(C(N)=O)N1C(=O)C2C3CCC(C3)C2C1=O (stereo not given)
inactive: [15] 90 % of control | [2] 107 % of control | [16] 100 % of control | [4] 107 % of control | [17] 100 % of control | [6] 98 % of control

COc1cc(Oc2c(OC)cc(C(C)=O)cc2OC)cc(OC)c1OC
inactive: [15] 101 % of control | [16] 97 % of control | [17] 97 % of control

C/C(=N\NC(N)=S)c1ccccc1
inactive: dose: 5.0 mg/kg/injection, schedule: Q01DX009 (ip), vehicle: Klucel (hydroxypropylcellulose) (HPC) 97 % of control | dose: 5.0 mg/kg/injection, schedule: Q04DX003 (ip), vehicle: Klucel (hydroxypropylcellulose) (HPC) 97 % of control | dose: 10.0 mg/kg/injection, schedule: Q01DX009 (ip), vehicle: Klucel (hydroxypropylcellulose) (HPC) 110 % of control | dose: 10.0 mg/kg/injection, schedule: Q04DX003 (ip), vehicle: Klucel (hydroxypropylcellulose) (HPC) 103 % of control | dose: 20.0 mg/kg/injection, schedule: Q01DX009 (ip), vehicle: Klucel (hydroxypropylcellulose) (HPC) 105 % of control | dose: 20.0 mg/kg/injection, schedule: Q04DX003 (ip), vehicle: Klucel (hydroxypropylcellulose) (HPC) 98 % of control and 117 % of control | dose: 30.0 mg/kg/injection, schedule: Q04DX003 (ip), vehicle: Klucel (hydroxypropylcellulose) (HPC) 95 % of control | dose: 40.0 mg/kg/injection, schedule: Q04DX003 (ip), vehicle: Klucel (hydroxypropylcellulose) (HPC) 120 % of control

O=C(Nc1ccccc1Cl)OC/C=C/c1ccccc1
inactive: [18] 103 % of control | dose: 100.0 mg/kg/injection, schedule: Q04DX002 (ip), vehicle: Klucel (hydroxypropylcellulose) (HPC) 88 % of control | [20] 96 % of control | dose: 200.0 mg/kg/injection, schedule: Q04DX002 (ip), vehicle: Klucel (hydroxypropylcellulose) (HPC) 88 % of control | [22] 108 % of control | dose: 400.0 mg/kg/injection, schedule: Q04DX002 (ip), vehicle: Klucel (hydroxypropylcellulose) (HPC) 100 % of control

CC(=O)O/N=C(/C)c1ccccc1
inactive: dose: 75.0 mg/kg/injection, schedule: Q01DX009 (ip), vehicle: saline sonified 102 % of control | dose: 100.0 mg/kg/injection, schedule: Q04DX003 (ip), vehicle: saline sonified 100 % of control | dose: 150.0 mg/kg/injection, schedule: Q01DX009 (ip), vehicle: saline sonified 100 % of control | dose: 200.0 mg/kg/injection, schedule: Q04DX003 (ip), vehicle: saline sonified 97 % of control | dose: 400.0 mg/kg/injection, schedule: Q04DX003 (ip), vehicle: saline sonified 100 % of control

COc1cc2c(cc1OC(C)=O)CCCCC2=O
inactive: [7] 101 % of control | [8] 103 % of control | dose: 400.0 mg/kg/injection, schedule: Q01DX001 (ip), vehicle: saline 101 % of control
